Results from US7332482B2, “Method for treating benign prostatic hyperplasia” (BioXell S.p.A., priority 2003, dated 2008).

Test system: bladder strips
Experiment: In vitro contractility of bladder strips from BOO rats
Set-up: species or system rat
Conditions: strips from treated rats
Experimental: After completion of the cystometries, the rats were sacrificed by carbon monoxide asphyxiation followed by exsanguination. The abdomen was accessed through a lower midline incision whereafter the symphysis was opened. The bladder was carefully dissected free, and immediately placed in chilled Krebs solution, and strip preparations were dissected.
The bladder and urethra were separated at the level of the bladder neck, and semicircular strips were prepared from the middle third of the detrusor (1×2×5 mm). All preparations were used immediately after removal.
The strips were transferred to 5 ml tissue baths containing Krebs solution. The Krebs solution was maintained at 37° C. and bubbled continuously with a mixture of 95% O2 and 5% CO2, resulting in a pH of 7.4. The strips were suspended between two L-shaped hooks by means of silk ligatures. One hook was connected to a movable unit allowing adjustment of passive tension, and the other to a Grass FT03C (Grass Instruments Co, MA, USA) force transducer. Isometric tension was recorded using a Grass polygraph (7D). After mounting, the strips were stretched to a passive tension of 4 mN (the same tension for all preparations) and allowed to equilibrate for 45-60 min before further experiments were performed.
Electrical field stimulation (EFS) was accomplished by means of two platinum electrodes placed on either side of the preparations, and was performed using a Grass S48 or S88 stimulator, delivering single square wave pulses at selected frequencies. The train duration was 5 s, the pulse duration 0.8 ms, and the stimulation interval 2 min. The polarity of the electrodes was shifted after each pulse by means of a polarity changing unit.
Each experiment was started by exposing the preparations to a high K^+ (124 mM) Krebs solution until two reproducible contractions are obtained. […]

C=C1/C(=C\C=C2/CCC[C@]3(C)C([C@@H](C)C/C=C/C(O)(CC)CC)=CC[C@@H]23)C[C@@H](O)C[C@@H]1F [Compound A, 1-alpha-fluoro-25-hydroxy-16,23E-diene-26,27-bishomo-20-epi-cholecalciferol]
beneficial effect: response of bladder strips to EFS | response of bladder strips to carbachol | K response of bladder strips (high K+ 124 mM)
